Test [1] deals with Mycobacterium tuberculosis. The test is described as follows: Antimycobacterial activity against Mycobacterium tuberculosis H37Ra ATCC 25177 assessed as growth inhibition after 24 to 168 hrs by microplate resazurin assay. The test is classed as functional, organism-based. (The colour change of resazurin is a common sign of viable cells or microbes.)
The subject of another test is HEK293. Nature of the test: Cytotoxicity against human HEK293 cells assessed as cell viability after 24 hrs by cell titer-blue assay. The test is classed as cell-based. The settings on record: HEK293, 24 h.

We go through nine compounds from ChEMBL document CHEMBL3745636, “Dibenz[b,f]oxepin and Antimycobacterial Chalcone Constituents of Empetrum nigrum” (J Nat Prod, 2015).

≈ marks a conversion by molar mass, not a printed value.

Broadly, the IC50 is the midpoint of a concentration-inhibition curve. For orientation: MIC90 means an inhibitory concentration at the 90% level, which refers to growth in some studies and to a panel of isolates in others.

With `COc1c(O)cc2c(c1OC)-c1c(O)cccc1CC2`, in test [1], the IC50 came out at 113 µM and the MIC90 was 734 µM (≈ 200 µg/mL). For the same compound, the concentration for half-maximal inhibition (IC50) in the test with HEK293 amounted to 289 µM.

As for `O=C(/C=C/c1ccccc1)c1ccc(O)cc1O` [2',4'-DIHYDROXYCHALCONE], in test [1], the IC50 worked out at 23.8 µM and the MIC90 is 104 µM (≈ 25 µg/mL). Also, in the test on HEK293, the concentration for half-maximal inhibition (IC50) was 109 µM.

As to `COc1cc(CCc2ccccc2O)cc(OC)c1OC`, in test [1], the concentration for half-maximal inhibition (IC50) stood at 179 µM and the MIC90 was 694 µM (≈ 200 µg/mL). Also, the IC50 in the test on HEK293 came to 113 µM.

On to `O=C(CCc1ccccc1)c1ccc(O)cc1O`, for which the IC50 turned out to be 32.8 µM in test [1] and 249 µM in the test on HEK293. Also, in test [1], the MIC90 is 206 µM (≈ 49.9 µg/mL).

As for `CC1(C)CC[C@]2(CO)CC[C@]3(C)C(=CC[C@@H]4[C@@]5(C)CC[C@H](O)C(C)(C)[C@@H]5CC[C@]43C)[C@@H]2C1` [ERYTHRODIOL], in test [1], the IC50 is 157 µM and the MIC90 is > 903 µM. In the test on HEK293, the IC50 turned out to be 613 µM.

As for `COc1c(O)cc2c(c1OC)Oc1ccccc1CC2`, in test [1], the IC50 worked out at 94.4 µM and the MIC90 is 367 µM (≈ 99.9 µg/mL). Further, in the test with HEK293, the IC50 was 167 µM.

In the case of `COc1cc(CCc2ccccc2O)cc(O)c1OC`, in test [1], the IC50 is 900 µM and the MIC90 is > 1460 µM. Also, the concentration for half-maximal inhibition (IC50) in the test with HEK293 came to 298 µM.

For `COc1cc2c(c(O)c1OC)Oc1ccccc1CC2`, the results for the IC50 (in test [1]; in the test on HEK293) were 105 µM and 355 µM, respectively. The MIC90 in test [1] came out at 367 µM (≈ 99.9 µg/mL).

Regarding `CC1(C)CC[C@]2(C(=O)O)CC[C@]3(C)C(=CC[C@@H]4[C@@]5(C)CC[C@H](O)C(C)(C)[C@@H]5CC[C@]43C)[C@@H]2C1` [OLEANOLIC_ACID], in test [1], the IC50 was determined as 214 µM and the MIC90 is > 876 µM. Further, the IC50 with HEK293 is 329 µM.
